The subject of data set [1] is late-stage gametocytes (NF54-PfS16-GFP-Luc). The data set can be described thus: Luciferase reporter assay, late-stage gametocytes. The data set is classed as cell-based, Plasmodium falciparum. The method, then:
All the complexes were tested for their early- and late-stage gametocyte activity in a dual-point assay (1 μM and 5 μM). […]
1.5.In vitro activity against gametocyte stages
PfNF54 gametocytes were prepared and isolated according to the method reported by Reader […]
The in vitro gametocyte activity of the synthesized complexes was determined using a luciferase reporter line-based assay.
NF54-PfS16-GFP-Luc parasites were used for the stage-specific assessment of gametocytocidal activity. Early-stage gametocyte (stage I-III) experiments were performed on day 5 (representing >90% of early-stage and late-stage gametocyte (stages IV/V) experiments were performed on day 10. In each experiment, assays were set up with the use of 2-3% […]
Luciferase activity was determined in 30 µL parasite lysates by adding luciferin substrate (30 µL) (Promega Luciferase Assay System) at room temperature. […]
Background: In a reporter assay the amount or activity of a reporter protein is the signal.

Data set [2] can be described thus: Single-point microsomal metabolic stability, human. The conditions noted are these: human liver microsomes, 1 µM. The data set is classed as in vitro ADME. As to the method:
1.8. Microsomal metabolic stability studies […]
rat IGS, Xenotech), and mouse (male mouse CD1, Xenotech) liver microsomes (0.4 mg/ml) for 30 min at 37 °C. Reactions were quenched by adding ice-cold acetonitrile containing […]
disappearance of the parent compound. Half-life, clearance, and hepatic excretion ratios were determined using standard equations.6,7 Propranolol. […]
In general terms: Microsomes from liver hold many membrane-bound enzymes, among them those of drug oxidation.

The nature of another data set: Cyclic voltammetry. In kind it is physicochemical. From the text: It is known that Fe^2+/Fe^3+ redox chemistry has an important role in the bioactivity of ferrocene derivatives.[33] The production of reactive oxygen species (ROS) is one of the modes of action of ferroquine and other ferrocene derivatives[34] and is linked to the correlation between their bioactivity and electrochemical behavior. We determined whether a similar correlation could be made for the mixed-ligand platinum(II) complexes reported herein given that metal centers have the potential to be oxidized and reduced. The electrochemistry of the complexes was studied using cyclic voltammetry (CV), which uses a triangular potential waveform. The CV experiments were performed in either dry MeOH or DMF containing tetrabutylammonium chloride (TBACl) as the supporting electrolyte. The working electrode was glassy carbon with a platinum wire as the counter electrode and Ag/AgCl as the reference. The anodic (Epa) and cathodic (Epc) peak potentials at 0.1 V/s and half-wave potentials (E1/2) were measured (Table 3). All of the tested complexes undergo reversible one-electron Pt^2+/Pt^+ reductions (Figures S38–S46). Complexes C2, C4, and C8 undergo a second nonreversible reduction (Epc2), which is most likely ligand-based and linked to reductions of the substituent on the bpy. Looking at SAR2, the more electron-withdrawing the substituent, the […] the E1/2 (V vs Fe/Fe^+) value was. This trend was expected, as a more electron-withdrawing substituent reduces the electron density around the metal center, making it easier for the metal to be reduced from Pt^2+ to Pt^+. […] This is also the case for other bpy-containing platinum(II) complexes that only undergo reductions.[35],[36] […]
For the cyclic voltammetry experiments a solution of the test compound (1 x 10-3) in DMSO (3 mL) is added to the electrolyte solution (0.1 M tetrabutylammonium chloride (TBACl) in DMSO). The electrochemical measurements were obtained using a Basi Epsilon Eclipse Electrochemical Analyzer Potentiostat and the CV graphs were generated using Excel. The working electrode was glassy carbon (GC) with platinum wire as the counter electrode (CE) and Ag/AgCl as the reference. […]

A value given as a limit tells only on which side of the number the result lay.

Data on one molecule can be found in article PMC11912270, “Synthesis and SAR Studies of Acyl-Thiourea Platinum(II) Complexes Yield Analogs with Dual-Stage Antiplasmodium Activity” (ACS Medicinal Chemistry Letters, 2025).

As usually defined, the IC50 is the concentration that inhibits the measured activity by half. Turning to `Nc1cc[n+]2c(c1)-c1cc(N)cc[n+]1[Pt-2]21[O+]=C(c2ccccc2)N=C(N(CCO)CCO)[S]1.[Cl-]` [C6], in data set [1] (1 µM, single biological repeat), the “LG (% inhibition) 1 µM” value is on record as 42.3 % inhibition. Further, the “LG (% inhibition) 5 µM” value in data set [1] (5 µM, single biological repeat) came to 32.4 % inhibition. Also, the IC50 in data set [1] (late (IV/V) gametocytes, luciferase, 48 h, read-out: LG IC50) was more than 20 µM. In data set [2], the “Microsomal metabolic stability (% remaining after 30 min) Human” value came to 43 % remaining. Also, in the data set “Cyclic voltammetry” (anodic peak potential, 0.1 V/s), the Epa1 entry is given as “–1.138 V”. Further, in the data set “Cyclic voltammetry” (cathodic peak potential, 0.1 V/s), the Epc1 entry is “–1.068 V”. For the same molecule, the E1/2 entry is “–1.103 V vs Ag/Ag^+” in “Cyclic voltammetry” (half-wave potential) and “–1.643 V vs Fe/Fe^+” in “Cyclic voltammetry” (half-wave potential corrected to ferrocene).
